Results published in paper PMC7712541, “Seven New Cytotoxic and Antimicrobial Xanthoquinodins from Jugulospora vestita” (Journal of Fungi, 2020).
≈ marks a conversion by molar mass, not a printed value.

How the values were obtained:
NCI-H187 and Vero = test system: NCI-H187 and Vero; set-up: method as in PMID 29677644; settings: cited from earlier work
[1] = test system: Co. truncatum and Cu. lunata; set-up: method as in PMID 29677644; settings: cited from earlier work
Mycobacterium smegmatis = test: MIC, antibacterial test; format: cell-based; set-up: key: –: no inhibition observed under test conditions
Method: (§1) Compounds were tested for their antimicrobial activity against […] fungi (Candida albicans, Mucor hiemails, Pichia anomala, Rhodotorula glutinis and Schizosaccharomyces pombe), four different Gram-positive bacteria (Bacillus subtilis, Micrococcus luteus, Mycobacterium smegmatis and Staphylococcus aureus), and three Gram-negative bacteria (Chromobacterium violaceum, Escherichia coli and Pseudomonas aeruginosa), using oxytetracycline as a positive control against Gram-positive and Gram-negative bacteria, while nystatin was used as an antifungal positive control. Besides, cytotoxicities of the compounds against seven mammalian cell lines (human endocervical adenocarcinoma KB 3.1, breast cancer MCF-7, lung cancer A549, ovary cancer SK-OV-3, prostate cancer PC-3, squamous cancer A431, and mouse fibroblasts L929) were determined by the microculture tetrazolium test (MTT) method, using epothilon B as the positive control. Both bioactivity assays were performed following our standard protocols.

Candida albicans = test: MIC, antifungal test; format: cell-based; set-up: key to Minimum inhibitory concentration (MIC): –: no inhibition observed under test conditions
Method: as §1

Mucor hiemalis = test: MIC, antifungal test; format: cell-based; set-up: key to Minimum inhibitory concentration (MIC): –: no inhibition observed under test conditions; settings: for MIC: read-out: Minimum inhibitory concentration (MIC)
Method: as §1

Pichia anomala = test: MIC, antifungal test; format: cell-based; set-up: key to Minimum inhibitory concentration (MIC): –: no inhibition observed under test conditions
Method: as §1

Rhodotorula glutinis = test: MIC, antifungal test; format: cell-based; set-up: key to Minimum inhibitory concentration (MIC): –: no inhibition observed under test conditions; settings: for MIC: read-out: Minimum inhibitory concentration (MIC)
Method: as §1

[2] = test system: Schizosaccharomyces pombe; test: MIC, antifungal test; format: cell-based; set-up: key to Minimum inhibitory concentration (MIC): –: no inhibition observed under test conditions
Method: as §1

Bacillus subtilis = test: MIC, antibacterial test; format: cell-based; settings: read-out: Minimum inhibitory concentration (MIC)
Method: as §1

Micrococcus luteus = test: MIC, antibacterial test; format: cell-based; settings: read-out: Minimum inhibitory concentration (MIC)
Method: as §1

Staphylococcus aureus = test: MIC, antibacterial test; format: cell-based; settings: read-out: Minimum inhibitory concentration (MIC)
Method: as §1

[3] = test system: Chromobacterium violaceum; test: MIC, antibacterial test; format: cell-based; set-up: key to Minimum inhibitory concentration (MIC): –: no inhibition observed under test conditions
Method: as §1

Escherichia coli = test: MIC, antibacterial test; format: cell-based; set-up: key to Minimum inhibitory concentration (MIC): –: no inhibition observed under test conditions
Method: as §1

Pseudomonas aeruginosa = test: MIC, antibacterial test; format: cell-based; set-up: key to Minimum inhibitory concentration (MIC): –: no inhibition observed under test conditions
Method: as §1

Cytotoxicity, MTT method = test: Cytotoxicity, MTT method
Method: as §1

[4] = test system: KB 3.1, L929, A549, SK-OV-3, PC-3, A431, and MCF-7 mammalian cell lines; test: Cytotoxicity, summary over all tested cell lines; format: cell-based; settings: seven mammalian cell lines; read-out: IC50 values, range over all tested cell lines
Method: as §1

[5] = test system: Al. brassicicola, Co. gloeosporioides, Co. truncatum, Cu. lunata and Py. grisea; set-up: method as in PMID 29677644; settings: cited from earlier work
[6] = human, A431 squamous cancer cells
[7] = human, KB 3.1 endocervical adenocarcinoma cells
[8] = human, MCF-7 breast cancer cells
[9] = human, PC-3 prostate cancer cells
[10] = human, SK-OV-3 ovary cancer cells
[11] = read-out: Minimum inhibitory concentration (MIC)

Compound	Minimum inhibitory concentration (MIC) (Mycobacterium smegmatis)	Minimum inhibitory concentration (MIC) (Candida albicans)	Minimum inhibitory concentration (MIC) (Pichia anomala)	Minimum inhibitory concentration (MIC) (Rhodotorula glutinis)	Minimum inhibitory concentration (MIC) [2]	MIC (Bacillus subtilis) [µg/mL]	MIC (Micrococcus luteus) [µg/mL]	MIC (Staphylococcus aureus) [µg/mL]	Minimum inhibitory concentration (MIC) [3]	Minimum inhibitory concentration (MIC) (Escherichia coli)	Minimum inhibitory concentration (MIC) (Pseudomonas aeruginosa)	IC50 [4] [nM]	MIC (Mucor hiemalis) [µg/mL]	other results
COC(=O)[C@]12Oc3cc4c(c(O)c3C(=O)C1=C(O)CC[C@@H]2O)[C@@H]1C=C[C@]2(C4)C(=C(O)c3c(O)cc(C)cc3[C@@H]2O)C1=O [xanthoquinodin A6]														Cytotoxicity compared with other xanthoquinodins (in words) (NCI-H187 and Vero): stronger cytotoxicity; Antifungal effects (in words) [1]: significant antifungal effects
NC[C@H]1O[C@H](O[C@H]2[C@H](O)[C@@H](O[C@H]3O[C@H](CO)[C@@H](O)[C@H](N)[C@H]3O)[C@H](N)C[C@@H]2N)[C@H](O)[C@@H](O)[C@@H]1O [kanamycin, reference compound]	1.70 ^3 µg/mL													
CCCC(=O)O[C@H]1c2cc(C)cc(O)c2C(=O)C2=C(O)[C@H]3C=C[C@]21Cc1cc(O)c2c(c13)O[C@@]1(C(=O)OC)C(=C(O)CC[C@@H]1O)C2=O [Compound 2, Xanthoquinodin B10]	–	–	–	–	–	0.4 (≈ 0.621 µM)	2.1 (≈ 3.26 µM)	2.1 (≈ 3.26 µM)	–	–	–	30 to 1460		Minimum inhibitory concentration (MIC) (Mucor hiemalis): –; IC50 (Cytotoxicity, MTT method; [6]): 60 nM; IC50 (Cytotoxicity, MTT method; human, A549 lung cancer cells): 400 nM; IC50 (Cytotoxicity, MTT method; [7]): 190 nM; IC50 (Cytotoxicity, MTT method; [8]): 40 nM; IC50 (Cytotoxicity, MTT method; [9]): 1060 nM; IC50 (Cytotoxicity, MTT method; [10]): 130 nM; IC50 (Cytotoxicity, MTT method; mouse, L929 fibroblasts): 1460 nM
ketoxanthoquinodin A6														Antifungal effects (in words) [1]: significant antifungal effects
CNC(C)C1CCC(N)C(OC2C(N)CC(N)C(OC3OCC(C)(O)C(NC)C3O)C2O)O1 (stereo not shown) [gentamicin, reference compound]														MIC (Pseudomonas aeruginosa; [11]): 0.4 µg/mL (≈ 0.838 µM)
COC(=O)[C@@]12Oc3c(c(O)cc4c3[C@@H]3C=C[C@]5(C4)C(=C(O)c4c(O)cc(C)cc4[C@@H]5O)C3=O)C(=O)C1=C(O)CC[C@@H]2O [xanthoquinodin B5]														Cytotoxicity compared with other xanthoquinodins (in words) (NCI-H187 and Vero): stronger cytotoxicity; Antifungal effects (in words) [5]: significant antifungal effects
CCCC(=O)O[C@H]1c2cc(C)cc(O)c2C(=O)C2=C(O)[C@H]3C=C[C@]21Cc1cc(O)c2c(c13)O[C@@](C(=O)OC)([C@@H](O)CCC(=O)O)CC2=O [Compound 7, Xanthoquinodin B15]	–	–	–	–	–	4.2 (≈ 6.34 µM)	4.2 (≈ 6.34 µM)	8.3 (≈ 12.5 µM)	–	–	–	1030 to 18600	66.7 (≈ 101 µM)	IC50 (Cytotoxicity, MTT method; [6]): 2870 nM; IC50 (Cytotoxicity, MTT method; human, A549 lung cancer cells): 11500 nM; IC50 (Cytotoxicity, MTT method; [7]): 3470 nM; IC50 (Cytotoxicity, MTT method; [8]): 1030 nM; IC50 (Cytotoxicity, MTT method; [9]): 4980 nM; IC50 (Cytotoxicity, MTT method; [10]): 3930 nM; IC50 (Cytotoxicity, MTT method; mouse, L929 fibroblasts): 9970 nM
C[C@@H]1[C@H](O)[C@@H](C)/C=C/C=C/CC/C=C/C=C/C=C/C=C/C(O[C@H]2O[C@H](C)[C@@H](O)[C@H](N)[C@@H]2O)CC2O[C@](O)(CC(O)C(O)CCC(O)CC(O)CC(O)CC(=O)O[C@H]1C)CC(O)C2C(=O)O (stereo partly shown) [nystatin, reference compound]		33.30 ^1 µg/mL	33.30 ^1 µg/mL	16.70 ^1 µg/mL	33.30 ^1 µg/mL									Minimum inhibitory concentration (MIC) (Mucor hiemalis): 33.30 ^1 µg/mL
CCCC(=O)O[C@H]1c2cc(C)cc(O)c2C(=O)C2=C(O)[C@H]3C=C[C@]21Cc1cc(O)c2c(c13)O[C@@](C(=O)OC)([C@@H]1CCC(=O)O1)CC2=O [Compound 6, Xanthoquinodin B14]	–	–	–	–	–	4.2 (≈ 6.52 µM)	8.3 (≈ 12.9 µM)	4.2 (≈ 6.52 µM)	–	–	–	1030 to 18600	66.7 (≈ 103 µM)	IC50 (Cytotoxicity, MTT method; [6]): 3110 nM; IC50 (Cytotoxicity, MTT method; human, A549 lung cancer cells): 18600 nM; IC50 (Cytotoxicity, MTT method; [7]): 3420 nM; IC50 (Cytotoxicity, MTT method; [8]): 1100 nM; IC50 (Cytotoxicity, MTT method; [9]): 5430 nM; IC50 (Cytotoxicity, MTT method; [10]): 3880 nM; IC50 (Cytotoxicity, MTT method; mouse, L929 fibroblasts): 10600 nM
CCCC(=O)O[C@H]1c2cc(C)cc(O)c2C(=O)C2=C(O)[C@H]3C=C[C@]21Cc1cc2c(c(O)c13)C(=O)C1=C(O)CC[C@H](O)[C@@]1(C(=O)OC)O2 [Compound 1, Xanthoquinodin A11]	–	–	–	–	–	0.4 (≈ 0.621 µM)	4.2 (≈ 6.52 µM)	2.1 (≈ 3.26 µM)	–	–	–	30 to 1460	66.7 (≈ 103 µM)	IC50 (Cytotoxicity, MTT method; mouse): 1130 nM
COC(=O)[C@]12Oc3c(c(O)cc4c3[C@@H]3C=C[C@]5(C4)C(=C3O)C(=O)c3c(O)cc(C)cc3[C@@H]5OC(C)=O)C(=O)C1=C(O)CC[C@@H]2O [Compound 5, Xanthoquinodin B13]	–	–	–	–	–	0.2 (≈ 0.324 µM)	2.1 (≈ 3.41 µM)	8.3 (≈ 13.5 µM)	–	–	–	30 to 1460	66.7 (≈ 108 µM)	IC50 (Cytotoxicity, MTT method; mouse): 1120 nM
CCCC(=O)O[C@H]1c2cc(C)cc(O)c2C(=O)C2=C(O)[C@H]3C=C[C@]21Cc1cc(O)c2c(c13)O[C@@]1(C(=O)OC)C(=C(O)[C@@H](O)C[C@@H]1O)C2=O [Compound 4, Xanthoquinodin B12]	–	–	–		–	0.8 (≈ 1.21 µM)	2.1 (≈ 3.18 µM)	2.1 (≈ 3.18 µM)	–	–	–	1030 to 18600	66.7 (≈ 101 µM)	MIC (Rhodotorula glutinis): 66.7 µg/mL (≈ 101 µM); IC50 (Cytotoxicity, MTT method; mouse): 13500 nM
CCCC(=O)O[C@H]1c2cc(C)cc(O)c2C(=O)C2=C(O)[C@H]3C=C[C@]21Cc1cc(O)c2c(c13)O[C@]1(C(=O)OC)C(=C(O)CC[C@@H]1O)C2=O [Compound 3, Xanthoquinodin B11]	–		8.30 µg/mL (≈ 12.9 µM)	2.10 µg/mL (≈ 3.26 µM)		0.2 (≈ 0.31 µM)	2.1 (≈ 3.26 µM)	1 (≈ 1.55 µM)	–	–	–	30 to 1460	2.1 (≈ 3.26 µM)	MIC (Candida albicans; [11]): 16.7 µg/mL (≈ 25.9 µM); Minimum inhibitory concentration (MIC) (Mucor hiemalis): 2.10 µg/mL (≈ 3.26 µM); MIC (Pichia anomala; Hansenula anomala, read-out: Minimum inhibitory concentration (MIC)): 8.3 µg/mL (≈ 12.9 µM); MIC (Rhodotorula glutinis): 2.1 µg/mL (≈ 3.26 µM); MIC [2, 11]: 66.7 µg/mL (≈ 103 µM); IC50 (Cytotoxicity, MTT method; [6]): 50 nM; IC50 (Cytotoxicity, MTT method; human, A549 lung cancer cells): 260 nM; IC50 (Cytotoxicity, MTT method; [7]): 150 nM; IC50 (Cytotoxicity, MTT method; [8]): 40 nM; IC50 (Cytotoxicity, MTT method; [9]): 650 nM; IC50 (Cytotoxicity, MTT method; [10]): 150 nM; IC50 (Cytotoxicity, MTT method; mouse, L929 fibroblasts): 980 nM
CN(C)[C@@H]1C(O)=C(C(N)=O)C(=O)[C@@]2(O)C(O)=C3C(=O)c4c(O)cccc4[C@@](C)(O)[C@H]3[C@H](O)[C@@H]12 [oxytetracycline, reference compound]						8.3 (≈ 18 µM)	0.8 (≈ 1.74 µM)	0.4 (≈ 0.869 µM)						MIC [3, 11]: 0.8 µg/mL (≈ 1.74 µM); MIC (Escherichia coli; [11]): 3.3 µg/mL (≈ 7.17 µM)
